Here are results for eight compounds from patent publication US20240398738A1, “MANIPULATION OF THE RETINOIC ACID SIGNALING PATHWAY” (THE REGENTS OF THE UNIVERSITY OF CALIFORNIA, priority 2017, published 2024).

Assay [1] deals with RGCs in rd1 retina. Nature of the assay: MEA recording of photoswitch (QAQ, BENAQ) photosensitization in rd1 retina. The format is in vivo, mouse. The following applies: rd1 retina without BMS-493, mean±SEM. Here is the method:
(§1) Intravitreal Injections. Before injection, mice were anesthetized with isoflurane (2%) and their pupils were dilated with tropicamide (1%) and phenylephrine (2.5%). Proparacaine (0.5%) was used as a topical analgesic. Genteal was applied under a glass coverslip to keep the cornea lubricated. An incision was made through the sclera below the ora serrata with a 30G needle and ˜1 μl of solution was injected into the vitreous with a blunt-ended 33G Hamilton syringe. After injection, the antibiotic tobramycin (0.3%) was applied to the eye. Final drug concentrations after intravitreal injection were: all-trans retinoic acid (ATRA, 100 nM), liarozole (100 μM), diethylaminobenzaldehyde (DEAB, 20 μM), citral (50 μM), BMS-493 (500 nM), and retinaldehyde (1 μM). The above values correspond to the final concentration in the eye after injecting 1 μl of drug accounting for a 5-fold dilution. An injection of PBS including 1% DMSO was used as vehicle control.
(§2) Multi Electrode Array Recordings. For extracellular recordings, a flat-mounted retina was placed ganglion cell layer down onto a 60-electrode Multi-Electrode Array (MEA 1060-2-BC, Multi-Channel Systems). After mounting the retina, photoswitches were applied for 30 min, followed by a 15 min wash. BENAQ was applied at a concentration of 100 μM and QAQ at 300 μM. A solution containing a mixture of neurotransmitter receptor blockers isolated RGCs from synaptic inputs: (in μM) 10 AP4, 40 DNQX, 30 AP5, 10 SR-95531, 50 TPMPA, 10 strychnine, and 50 tubocurarine. Extracellular spikes were high-pass filtered at 200 Hz and digitized at 20 kHz and were counted when exceeding 4 SD from the mean background voltage signal. Typically, each electrode recorded spikes from one to three individual RGCs. Principal component analysis of the spike waveforms was used for sorting spikes generated by individual cells (Offline Sorter, Plexon). Stimulation light was generated from a mercury arc lamp. Unfiltered broad spectrum light was used for BENAQ-treated retinas. Narrow band optical filters (Chroma) were used to deliver alternating intervals of 380 nm and 500 nm for stimulation of QAQ-treated as described previously (5,12). The Photoswitch Index (5) (PI) was established for individual retinas in light/darkness for treatment with BENAQ or in 380 nm/500 nm light for treatment with QAQ (11,12).
(§3) Injections. Intravitreal injections: Adult mice and rats were intravitreally injected with drugs or viruses. Before injection, animals were anesthetized with isoflurane (2%) and their pupils were dilated with tropicamide (1%) and phenylephrine (2.5%). Proparacaine (0.5%) was used as a topical analgesic. Genteal was applied under a glass coverslip to keep the cornea lubricated. An incision was made through the sclera below the ora serrata with a 30G needle. Solutions were injected into the vitreous with a blunt-ended 33G Hamilton syringe. After injection, the antibiotic tobramycin (0.3%) was applied to the eye. Final drug concentrations (after 5-fold dilution in the vitreous) were: 100 nM all-trans retinoic acid (ATRA), 100 μM liarozole (24), 20 μM diethylaminobenzaldehyde (DEAB) (28,93), 50 μM citral, 500 nM BMS 493 (85), 1 μM retinaldehyde, and vehicle comprising of 1× phosphate buffered saline (PBS) containing 1% dimethyl sulfoxide (DMSO). Intravitreal injections were performed using AAV2 serotype only. WT and rd1 mice were injected with the RAR-reporter virus or the RARDN virus, at age 1-1.5 month-old. […]

Assay [2] has as its system RGCs in rd1 retina. Nature of the assay: YO-PRO-1 loading assay (dye permeability of RGCs) in rd1 retina after intravitreal injection. The format is in vivo, mouse. Conditions: for Yo-Pro-1 labeling of rd1-RGCs, result in words: rd1, intravitreal injection, compared to vehicle-injected; for percentage of YO-PRO-1 positive cells (fraction of RGC nuclei labeled): rd1 mice, intravitreal injection, measured 3-7 days after, BMS-493 500 nM, DEAB 20 uM, citral 50 uM, mean±SEM. How it is done: as §1
(§4) Yo-PRO-1 Loading Assay. After dissection, retinas were cut into thirds and mounted on a windowed nitrocellulose filter paper. Retinas were treated with 200 nM Yo-PRO-1 (Life Technologies) in oxygenated ACSF for 15 minutes, followed by treatment and then treated with nuclear ID (Enzo Life Sciences) at a 1:500 dilution for 3 minutes. ACSF was perfused continuously at 3 ml/min for a period of 5 minutes to wash away excess dye. In experiments employing TNP-ATP (200 μm), the retinas was pretreated with the compound for ten minutes before beginning YO-PRO-1 treatment.
(§5) Image analysis. All image analysis was performed using ImageJ or Fiji software (55,56). Yo-PRO-1 loading assay, ROIs were manually selected using the nuclear-ID channel based upon morphological characteristics. This was performed after computationally flattening the retina by performing a maximum Z projection onto a single plane. Following this, a background subtraction was performed with a rolling radius of 50 pixels. Cells identified as vascular endothelial cells or pericytes were not included in the analysis. This was confirmed using transillumination. A threshold for YO-PRO-1 loading was established by measuring the level of autofluorescence of untreated retinas in each channel and finding a baseline value with +2SD being the threshold for a YO-PRO-1 positive cell. Nuclear-ID was used to count the total number of cells within a field of view. The percentage of cells above the threshold was then calculated for comparison. For analysis of RARE double reporter virus assay, ROIs were manually selected on the RFP channel first and then superimposed to the GFP channel. Single cell values for both RFP and GFP were filtered by using a RFP minimum threshold established in naive unlabeled retinas.
as §3, with “month-old. WT and s334ter rats were injected with the RAR-reporter virus at age 3-4 month-old. Final volume of injections was 1-1.5 μL for mice and 5 μL for rats.” for “month-old.”

Assay [3] concerns RGCs in WT retina. Nature of the assay: YO-PRO-1 loading assay (dye permeability of RGCs) in WT retina after intravitreal injection. The following applies: for percentage of YO-PRO-1 positive cells: intravitreal injection 3-7 days before, ATRA 100 nM, liarozole 100 μM, retinaldehyde 1 μM, DEAB 20 μM; for Yo-Pro-1 labeling of WT-RGCs, result in words: WT retina, substance injected intravitreally alone. Type of assay: in vivo, mouse. How it is done: as §1, §4, §5
as §3, with “month-old. WT and s334ter rats were injected with the RAR-reporter virus at age 3-4 month-old. Final volume of injections was 1-1.5 μL for mice and 5 μL for rats.” for “month-old.”

The next assay deals with gap junctions. Conditions: micromolar concentrations are required; cited from earlier work.
In assay [4] the test system is RGCs in WT retina. Description: MEA recording of photoswitch (QAQ, BENAQ) photosensitization in WT retina. Type of assay: in vivo, mouse. Here is the method:
as §1, §2
Injections. Intravitreal injections: Adult mice and rats were intravitreally injected with drugs or viruses. Before injection, animals were anesthetized with isoflurane (2%) and their pupils were dilated with tropicamide (1%) and phenylephrine (2.5%). Proparacaine (0.5%) was used as a topical analgesic. Genteal was applied under a glass coverslip to keep the cornea lubricated. An incision was made through the sclera below the ora serrata with a 30G needle. Solutions were injected into the vitreous with a blunt-ended 33G Hamilton syringe. After injection, the antibiotic tobramycin (0.3%) was applied to the eye. Final drug concentrations (after 5-fold dilution in the vitreous) were: 100 nM all-trans retinoic acid (ATRA), 100 μM liarozole (24), 20 μM diethylaminobenzaldehyde (DEAB) (28,93), 50 μM citral, 500 nM BMS 493 (85), 1 μM retinaldehyde, and vehicle comprising of 1× phosphate buffered saline (PBS) containing 1% dimethyl sulfoxide (DMSO). Intravitreal injections were performed using AAV2 serotype only. WT and rd1 mice were injected with the RAR-reporter virus or the RARDN virus, at age 1-1.5 month-old. WT and s334ter rats were injected with the RAR-reporter virus at age 3-4 month-old. Final volume of injections was 1-1.5 μL for mice and 5 μL for rats.
Multi Electrode Array Recordings. Flat-mounted retina was placed ganglion cell layer down onto a 60-electrode Multi-Electrode Array (MEA 1060-2-BC, Multi-Channel Systems). After mounting the retina was left to dark adapt for 20 minutes under constant perfusion with oxygenated saline at 34° C. 300 μM QAQ at was applied for 30 min, followed by a 5 min wash. […]

For `CCN(Cc1ccccc1)c1ccc(/N=N/c2ccc(NC(=O)C[N+](CC)(CC)CC)cc2)cc1` [BENAQ, benzylethylamino-azobenzene-quaternary ammonium], the “Photoswitch Index (PI) of BENAQ” value with RGCs in rd1 retina [1] (white light/darkness) is reported as 0.56±0.03.

Regarding `CCN(CC)c1ccc(C=O)cc1` [DEAB, diethylaminobenzaldehyde], in the assay on RGCs in rd1 retina [2], the “Yo-Pro-1 labeling of rd1-RGCs, result in words” value is recorded as “significantly reduced the percentage of rd1-RGCs labeled with Yo-Pro-1” and the “percentage of YO-PRO-1 positive cells (fraction of RGC nuclei labeled)” value is on record as 19.77±2.32%. For the same compound, the “percentage of YO-PRO-1 positive cells, retinaldehyde co-injected with DEAB” value with RGCs in WT retina [3] (WT mice, co-injection with retinaldehyde, 3-7 days before imaging, mean±SEM) is on record as 7.65±1.34%. Also, in the assay with RGCs in WT retina [3] (WT mice, mean±SEM), the “percentage of YO-PRO-1 positive cells” value stood at 7.47±1.21%. In addition, the “Yo-Pro-1 labeling of WT-RGCs, result in words” value (“Yo-Pro-1 labeling of WT-RGCs” for short) in the assay on RGCs in WT retina [3] is on record as “caused no change in Yo-Pro-1 labeling”.

As for `Cc1ccc(Cl)c(Nc2ccccc2C(=O)O)c1Cl` [Meclofenamic acid], in the assay with gap junctions, the “effect on RGC light responses” value is “augments RGC light responses by reducing hyperactivity”.

Regarding `CC[N+](CC)(CC)CC(=O)Nc1ccc(N=Nc2ccc(NC(=O)C[N+](CC)(CC)CC)cc2)cc1` [QAQ, quaternary ammonium-azobenzene-quaternary ammonium], the “Photoswitch Index (PI) of QAQ” value with RGCs in rd1 retina [1] (QAQ 300 μM, 380/500 nm) came out at 0.63±0.12.

Take `CC1=C(/C=C/C(C)=C/C=C/C(C)=C/C=O)C(C)(C)CCC1` [Retinaldehyde, retinaldehyde]: the “percentage of YO-PRO-1 positive cells” value with RGCs in WT retina [3] (WT mice, mean±SEM) is reported as 14.6±2.29%. The “Yo-Pro-1 labeling of WT-RGCs” value with RGCs in WT retina [3] is given as “significantly increasing Yo-Pro-1 labeling above baseline”.

For `CC(C)=CCCC(C)=CC=O` [citral], in the assay on RGCs in rd1 retina [2], the “Yo-Pro-1 labeling of rd1-RGCs, result in words” value was “significantly reduced the percentage of rd1-RGCs labeled with Yo-Pro-1” and the “percentage of YO-PRO-1 positive cells (fraction of RGC nuclei labeled)” value was 9.87±2.39%.

`Clc1cccc(C(c2ccc3[nH]cnc3c2)n2ccnc2)c1` (stereo not shown) [liarozole]: in the assay with RGCs in WT retina [3] (WT mice, mean±SEM), the “percentage of YO-PRO-1 positive cells” value worked out at 8.66±1.36%. The “Yo-Pro-1 labeling of WT-RGCs” value in the assay with RGCs in WT retina [3] is on record as “had no effect by itself”. Further, in the assay on RGCs in WT retina [4] (WT retina, 3-7 days after intravitreal injection), the “QAQ photosensitization of WT retina, in words” value is reported as “Neither ATRA nor liarozole alone enabled significant QAQ photosensitization”. For the same compound, the “Photoswitch Index (PI) with QAQ” value with RGCs in WT retina [4] (WT retina, 3-7 days after intravitreal injection, QAQ 300 μM, mean±SEM) is 0.27±0.13.

With TNP-ATP, in the assay on RGCs in WT retina [3] (WT mice injected with ATRA, TNP-ATP bath-applied ex vivo or BMS-493 co-injected, mean±SEM), the “percentage of YO-PRO-1 positive cells, ATRA-induced labeling with blocker” value is listed as 0.39±0.31%. The “Photoswitch Index (PI) with QAQ, ATRA plus liarozole with TNP-ATP” value in the assay with RGCs in WT retina [4] (WT retina injected with ATRA plus liarozole, TNP-ATP bath-loaded, mean±SEM) is listed as 0.19±0.14. The “effect on QAQ photosensitization induced by ATRA plus liarozole, in words” value in the assay with RGCs in WT retina [4] (WT retina, TNP-ATP bath-loaded) is on record as “blocked by TNP-ATP”.
